Each structure is given as a SMILES string.

Assay [1] deals with PDE10 (PDE10A). The assay is described as follows: Measurement of PDE10 inhibitory activity (radiolabeled nucleotide PDE assay). The settings on record: versus PDE1, 2, 3, 4, 5, 6, 7, 8, 9 and 11; IC50 value of 1/100 or less. The format is biochemical, bovine. The source says:
(1) Enzyme Preparation of PDE10 (PDE10A)
According to the methods described in Fujishige et al. (Fujishige et al., Eur. J. Biochem., vol. 266, pp. 1118-1127, 1999; and Mukai et al., Br. J. Pharmacol., vol. 111, pp. 389-390, 1994), the enzyme PDE10A was isolated and prepared as follows.
At first, corpus striatum was excised from bovine whole brain (Japanese Black Cattle, purchased from Tokyo Shibaura Zoki, co., Ltd.), and washed with ice-cold saline (0.9% sodium chloride). After the tissues were cut in a proper size, it was frozen by liquid nitrogen, and stored at −80° C. […]
The PDE assay was performed using the enzyme solution obtained in the above (1), and inhibitory activities of the compounds on PDE10 (PDE10A) were measured. […]
After the reaction was carried out while keeping the temperature at 37° C. for 30 minutes, the reaction was stopped by boiling the reaction mixture for 2 minutes, and further added thereto was 100 μl of snake venom (Crotalus atrox snake venom 1 mg/ml) and the temperature was kept at 37° C. for 30 minutes. […] Scintillation cocktail was added to each of the eluates, and the radioactivity was measured by scintillation counter. From them, PDE activity taking cAMP as a substrate (an activity to hydrolyze cAMP) was measured. […]

For assay [2], the target named is T1, PDE9 (PDE9A) (Homo sapiens, UniProt O76083).
T1 construct: FLAG (pFLAG-CMV-2) (N); made in house; host or cells: COS-7 cells, 100,000 x g supernatant of the sonicate, not purified
T1 sequence (O76083 whole entry): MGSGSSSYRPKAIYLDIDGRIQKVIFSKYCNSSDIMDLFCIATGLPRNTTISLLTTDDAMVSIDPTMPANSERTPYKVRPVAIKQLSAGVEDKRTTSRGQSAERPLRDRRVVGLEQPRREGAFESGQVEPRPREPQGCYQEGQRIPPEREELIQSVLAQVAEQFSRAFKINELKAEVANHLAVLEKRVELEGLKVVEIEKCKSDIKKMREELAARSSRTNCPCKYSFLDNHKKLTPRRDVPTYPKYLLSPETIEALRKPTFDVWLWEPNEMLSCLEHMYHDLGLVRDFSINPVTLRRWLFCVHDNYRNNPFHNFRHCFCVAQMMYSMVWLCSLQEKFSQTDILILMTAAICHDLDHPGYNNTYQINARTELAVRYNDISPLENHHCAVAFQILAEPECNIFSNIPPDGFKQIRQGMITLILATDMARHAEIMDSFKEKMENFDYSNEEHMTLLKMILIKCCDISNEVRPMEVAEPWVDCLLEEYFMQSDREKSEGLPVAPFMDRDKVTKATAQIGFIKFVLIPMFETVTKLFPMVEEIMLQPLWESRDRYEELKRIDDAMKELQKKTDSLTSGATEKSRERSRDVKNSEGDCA
The assay is described as follows: PDE assay, recombinant human PDE9A. In kind it is biochemical. The settings on record: substrate about 12 nM [3H]-cGMP and 0.1 μM cGMP. The protocol:
Based on the information of cDNA sequence of human PDE9A (Genbank/EMBL Accession No. AF048837) (Fisher et al., J. Biol. Chem., 1998, vol. 273, pp. 15559-15564, […]), a cDNA encoding human PDE9A was cloned by PCR method. Using this cDNA, a recombinant protein of human PDE9A was prepared as follows.
A DNA fragment comprising a cDNA encoding human PDE9A was linked to pFLAG-CMV-2 (available from Kodak), to give a vector plasmid for expression of human PDE9A, with a flag tag peptide added to the N-terminus. COS-7 cells were transfected by these vector plasmids, and the cells were cultured in Dulbecco's modified Eagle medium containing 10% bovine fetal serum for about 24 to 48 hours. After incubation, the cells were collected, and washed with Phosphate buffered saline, and re-suspended in a solution buffer (20 mM Tris-HCl, pH7.5, 2 mM magnesium acetate, 0.3 mM calcium chloride, 1 mM dithiothreitol, 1.3 mM benzamidine). The cells were homogenized by ultrasonic treatment, and subjected to centrifugation (100,000×g, 4° C., 1 hour) to collect a supernatant.
This supernatant containing the recombinant human PDE9A was used for PDE assay as a PDE9 (PDE9A) enzyme solution. […]

Broadly, the IC50 is the midpoint of a concentration-inhibition curve. For `COc1ccc(-c2cc(N3CCCC3)nc(/C=C/c3nc(-n4ccnc4)c4ccccc4n3)n2)cc1OC` [Compound A, 2-{(E)-2-[4-(1-imidazolyl)-quinazolin-2-yl]}ethenyl-4-(3,4-dimethoxy)phenyl-6-(pyrrolidin-1-yl)pyrimidine], the “inhibitory activity on PDE10 as compared to other PDE families (selectivity)” value in assay [1] is recorded as not below 100 times. Moreover, the IC50 in assay [2] is more than 1000 nM.

Source of the values: patent publication US8338420B1, “Treatment of Parkinson's disease and enhancement of dopamine signal using PDE 10 inhibitor” (Mitsubishi Tanabe Pharma Corporation, priority 2002, dated 2012).
